Laboratory results from patent US11167059B2, “Compositions with reactive ingredients, and wound dressings, apparatuses, and methods” (KCI Licensing, Inc., priority 2010, dated 2021).

Experiments:
[1] = tested on: Methicillin-resistant Staphylococcus aureus (MRSA); test: inhibition zone on MRSA monolayer in petri dish; assay type: cell-based; conditions: 30 μg control dose, 18 hours at 37° C.
Procedure: Experiments were performed for some of the present reactive agents (and/or resulting solutions) to investigate their antibacterial properties. In a first experiment, an even monolayer of Methicillin-resistant Staphylococcus aureus (MRSA) bacteria was spread across the surface of each of several petri dishes, and either a 30 μg control dose of Vancomycin, or an 8 mm×5 mm piece of sponge was placed on each petri dish. The pieces of sponge included: a piece of polyurethane foam coated with a silver (Ag), a piece of dry silicone foam, a piece of silicone foam impregnated with a Polyhexanide solution, a piece of silicone foam deposited with Ca(ClO)2 salt, and a piece of silicone foam deposited with NaClO salt. After placement of the pieces of foam, saline was dropped onto the foams deposited with Ca(ClO)2 and NaClO salts, respectively, Each petri dish was incubated for eighteen (18) hours at 37° C., and the clear area in which the bacteria had been killed (inhibition zone) was measured. […] In a second, similar experiment, the monolayer of bacteria was E. Coli instead of MRSA, and the remainder of the second experiment was substantially the same as the first. The results of the second experiment were also similar. […] From these preliminary experiments, the inventors believe the present reactive agents and the resulting solutions to have effective antimicrobial properties. […]

[2] = compatibility of suspension agents with Ca(OCl)2 (OCl− concentration by UV-Vis); assay type: physicochemical; conditions: about 13 mg Ca(OCl)2 in methylene chloride solution of agent, about one hour in the dark
Procedure: FIG. 6B depicts a chart illustrating the correlation of hypochlorite concentration from the UV absorbance of FIG. 6A with corresponding concentrations obtained by Iodine titration. FIG. 6C depicts a chart of OCl^− concentration in solutions with certain of the present suspension agents, including a control of only Ca(OCl)2 in solution (of methylene chloride), Ca(OCl)2 in PCL-1 solution having 0.5 g of PCL per 100 mL of methylene chloride; Ca(OCl)2 in PCL-2 solution having 1.0 g of PCL per 100 mL of methylene chloride; and Ca(OCl)2 in solution with TWEEN 80 (also known as polysorbate 80) having 0.1 g of TWEEN 80 per 10 g of methylene chloride. […] For each solution, approximately 13 mg of Ca(OCl)2 was added to each methylene chloride solution and the solution was placed in the dark for a period of about one hour. Then 5 mL of distilled water was added to each solution, and each was shaken to mix its respective ingredients. […] After settling, for each solution, one milliliter of the aqueous layer was removed and mixed with 10 mL of 0.1 N NaOH (e.g., to increase the pH to ensure all hypochlorous acid is converted to hypochlorite for complete capture of active chlorine), and evaluated with UV-Vis spectroscopy to determine the concentration of OCl (e.g., to determine whether the OCl— had degraded or been consumed by the polymer).

Work on `CN[C@H](CC(C)C)C(=O)N[C@H]1C(=O)N[C@@H](CC(N)=O)C(=O)N[C@H]2C(=O)N[C@H]3C(=O)N[C@H](C(=O)N[C@H](C(=O)O)c4cc(O)cc(O)c4-c4cc3ccc4O)[C@H](O)c3ccc(c(Cl)c3)Oc3cc2cc(c3O[C@@H]2O[C@H](CO)[C@@H](O)[C@H](O)[C@H]2O[C@H]2C[C@](C)(N)[C@H](O)[C@H](C)O2)Oc2ccc(cc2Cl)[C@H]1O` [Vancomycin] yielded an inhibition zone [1] of 200 mm^2.

In the case of polysorbate 80 [TWEEN 80], the “compatibility of suspension agent with Ca(OCl)2” value [2] is reported as “compatible with Ca(OCl)2”.
